31 compounds from US10189841B2, “Purinones as ubiquitin-specific protease 1 inhibitors” (Forma Therapeutics, Inc., priority 2015, dated 2019) can be followed below.

Chain of USP1 (construct USP1 (I-785, GG670, 671AA)/UAF1 (I-677)-Flag) (O94782 whole entry G670A/G671A): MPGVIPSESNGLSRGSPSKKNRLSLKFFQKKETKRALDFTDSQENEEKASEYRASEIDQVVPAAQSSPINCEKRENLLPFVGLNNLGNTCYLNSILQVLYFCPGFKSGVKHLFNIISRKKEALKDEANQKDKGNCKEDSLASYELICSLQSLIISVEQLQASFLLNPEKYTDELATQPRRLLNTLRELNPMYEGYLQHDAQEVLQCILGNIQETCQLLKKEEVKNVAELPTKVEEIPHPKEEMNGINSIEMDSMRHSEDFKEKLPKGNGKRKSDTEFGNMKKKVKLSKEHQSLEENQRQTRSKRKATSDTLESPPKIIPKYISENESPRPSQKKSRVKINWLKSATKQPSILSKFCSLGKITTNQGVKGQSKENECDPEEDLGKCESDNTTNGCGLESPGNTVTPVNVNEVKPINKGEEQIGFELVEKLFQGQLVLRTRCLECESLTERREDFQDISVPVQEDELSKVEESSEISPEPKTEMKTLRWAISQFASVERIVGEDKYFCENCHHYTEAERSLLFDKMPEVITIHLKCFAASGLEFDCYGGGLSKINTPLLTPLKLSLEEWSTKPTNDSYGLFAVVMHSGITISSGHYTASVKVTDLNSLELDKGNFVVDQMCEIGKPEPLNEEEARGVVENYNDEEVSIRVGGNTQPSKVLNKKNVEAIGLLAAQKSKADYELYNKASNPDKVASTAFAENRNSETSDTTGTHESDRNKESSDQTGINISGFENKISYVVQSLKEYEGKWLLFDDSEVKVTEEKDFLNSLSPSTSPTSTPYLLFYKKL
Chain of USP1 (construct USP1 (I-785, GG670, 671AA)/UAF1 (I-677)-Flag) (Q8TAF3 whole entry partner): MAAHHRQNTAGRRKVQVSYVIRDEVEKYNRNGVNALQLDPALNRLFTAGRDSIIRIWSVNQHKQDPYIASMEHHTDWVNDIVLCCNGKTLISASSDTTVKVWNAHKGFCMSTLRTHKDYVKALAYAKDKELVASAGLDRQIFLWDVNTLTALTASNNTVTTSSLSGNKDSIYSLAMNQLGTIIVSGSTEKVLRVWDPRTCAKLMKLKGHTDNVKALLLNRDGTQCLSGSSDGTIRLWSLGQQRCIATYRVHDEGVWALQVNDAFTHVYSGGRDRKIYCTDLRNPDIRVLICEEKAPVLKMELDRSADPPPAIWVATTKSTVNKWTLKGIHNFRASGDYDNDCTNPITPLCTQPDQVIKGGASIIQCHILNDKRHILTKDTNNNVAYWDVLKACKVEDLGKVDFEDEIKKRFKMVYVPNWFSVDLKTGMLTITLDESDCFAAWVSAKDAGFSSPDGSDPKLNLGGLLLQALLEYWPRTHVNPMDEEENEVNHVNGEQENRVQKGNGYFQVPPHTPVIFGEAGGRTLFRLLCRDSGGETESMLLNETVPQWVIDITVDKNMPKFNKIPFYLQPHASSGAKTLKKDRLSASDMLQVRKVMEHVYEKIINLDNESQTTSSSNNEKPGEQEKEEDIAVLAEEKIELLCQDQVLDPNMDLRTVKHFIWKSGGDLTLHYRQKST

This assay deals with USP1 (construct USP1 (I-785, GG670, 671AA)/UAF1 (I-677)-Flag) (Homo sapiens (Human), UniProt O94782, G670A/G671A). The assay is described as follows: Ubiquitin-Rhodamine 110 assay for USP1 activity. In kind it is biochemical. The conditions noted are these: USP1/UAF1 25 pM, Ub-Rh110 25 nM, 30 min preincubation. The gist of the method:
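Two formats with the USP1/UAF1 complex and 25 nM ubiquitin-rhodamine 110 in pH 8.0 Tris buffer with calcium, glutathione and detergent. Single-point screening used 10 µM, 100 pM enzyme and 45 min. Inhibition was set against no-enzyme and DMSO wells.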
For the compound `[2H]C([2H])([2H])n1c(=O)n(Cc2ccc(-c3nc(C(F)(F)F)cn3C)cc2)c2nc(-c3cccnc3C(C)C)ncc21` [Compound I-129, 2-(2-isopropylpyridin-3-yl)-7-(methyl-d3)-9-(4-(1-methyl-4-(trifluoromethyl)-1H-imidazol-2-yl)benzyl)-7,9-dihydro-8H-purin-8-one], the IC50 was less than 50 nM.

`CC(C)c1ncccc1-c1ncc2[nH]c(=O)n(Cc3ccc(-n4ccc(F)n4)cc3)c2n1` [Compound I-59, 9-(4-(3-fluoro-1H-pyrazol-1-yl)benzyl)-2-(2-isopropylpyridin-3-yl)-7,9-dihydro-8H-purin-8-one] showed an IC50 of 50 to 200 nM.

Regarding `CNC(=O)c1ccc(Cn2c(=O)[nH]c3cnc(-c4ccccc4C(C)C)nc32)cc1` [Compound I-351, 4-((2-(2-isopropylphenyl)-8-oxo-7,8-dihydro-9H-purin-9-yl)methyl)-N-methylbenzamide], the IC50 fell in the range of 50 to 200 nM.

`CN(C)CCOc1ncccc1-c1ncc2[nH]c(=O)n(Cc3ccc(-c4nc(C(F)(F)F)cn4C)cc3)c2n1` [Compound I-429, 2-(2-(2-(dimethylamino)ethoxy)pyridin-3-yl)-9-(4-(1-methyl-4-(trifluoromethyl)-1H-imidazol-2-yl)benzyl)-7,9-dihydro-8H-purin-8-one] showed an IC50 of 200 to 2000 nM.

The compound `Cn1cc(C(F)(F)F)nc1-c1ccc(Cn2c(=O)n(C)c3cnc(-c4ccccc4OC(F)(F)F)nc32)cc1` [Compound I-49, 7-methyl-9-(4-(1-methyl-4-(trifluoromethyl)-1H-imidazol-2-yl)benzyl)-2-(2-(trifluoromethoxy)phenyl)-7,9-dihydro-8H-purin-8-one] showed an IC50 of less than 50 nM.

Turning to `Cc1cc(C#N)n(-c2ccc(Cn3c(=O)[nH]c4cnc(-c5ccccc5C(C)C)nc43)cc2)n1` [Compound I-208, 1-(4-((2-(2-isopropylphenyl)-8-oxo-7,8-dihydro-9H-purin-9-yl)methyl)phenyl)-3-methyl-1H-pyrazole-5-carbonitrile], the IC50 was less than 50 nM.

In turn, `CC(C)c1ccccc1-c1ncc2[nH]c(=O)n(Cc3ccc(C(=O)N4CC5(CCOC5)C4)cc3)c2n1` [Compound I-394, 9-(4-(6-oxa-2-azaspiro[3.4]octane-2-carbonyl)benzyl)-2-(2-isopropylphenyl)-7,9-dihydro-8H-purin-8-one] had an IC50 of 200 to 2000 nM.

Compound `CC(C)c1ccccc1-c1ncc2c(n1)n(Cc1cccc(OC3CCC3)c1)c(=O)n2C` [Compound I-246, 9-(3-cyclobutoxybenzyl)-2-(2-isopropylphenyl)-7-methyl-7,9-dihydro-8H-purin-8-one] showed an IC50 of more than 2000 nM.

`COc1ccc(-c2cn(-c3ccc(Cn4c(=O)[nH]c5cnc(-c6ccccc6C(C)C)nc54)cc3)nn2)cc1` [Compound I-341, 2-(2-isopropylphenyl)-9-(4-(4-(4-methoxyphenyl)-1H-1,2,3-triazol-1-yl)benzyl)-7,9-dihydro-8H-purin-8-one]: the IC50 lay within 200 to 2000 nM.

On to `COc1ccc(-c2ncc3[nH]c(=O)n(Cc4ccc(-c5nc(C(F)(F)F)cn5C)cc4)c3n2)c(C)n1` [Compound I-73, 2-(6-methoxy-2-methylpyridin-3-yl)-9-(4-(1-methyl-4-(trifluoromethyl)-1H-imidazol-2-yl)benzyl)-7,9-dihydro-8H-purin-8-one], for which the IC50 is less than 50 nM.

Compound `CC(C)c1ccccc1-c1ncc2[nH]c(=O)n(Cc3ccc(-c4cnnn4C)cc3)c2n1` [Compound I-298, 2-(2-isopropylphenyl)-9-(4-(1-methyl-1H-1,2,3-triazol-5-yl)benzyl)-7,9-dihydro-8H-purin-8-one] returned an IC50 of more than 2000 nM.

In turn, `CC(C)c1ccccc1-c1ncc2[nH]c(=O)n(C3(c4ccc(-n5cccn5)cc4)CC3)c2n1` [Compound I-226, 9-(1-(4-(1H-pyrazol-1-yl)phenyl)cyclopropyl)-2-(2-isopropylphenyl)-7,9-dihydro-8H-purin-8-one] had an IC50 of less than 50 nM.

With `CC(C)c1ccccc1-c1ncc2[nH]c(=O)n(Cc3ccc(C(=O)N4CCCC4)cc3)c2n1` [Compound I-389, 2-(2-isopropylphenyl)-9-(4-(pyrrolidine-1-carbonyl)benzyl)-7,9-dihydro-8H-purin-8-one], the IC50 is less than 50 nM.

As to `CC(C)c1ccccc1-c1ncc2[nH]c(=O)n(CC3(F)CCN(S(=O)(=O)C4CC4)CC3)c2n1` [Compound I-460, 9-((1-(cyclopropylsulfonyl)-4-fluoropiperidin-4-yl)methyl)-2-(2-isopropylphenyl)-7,9-dihydro-8H-purin-8-one], the IC50 was 200 to 2000 nM.

`COCCn1cc(C(F)(F)F)nc1-c1ccc(Cn2c(=O)[nH]c3cnc(-c4cccnc4C(C)C)nc32)cc1` [Compound I-43, 2-(2-isopropylpyridin-3-yl)-9-(4-(1-(2-methoxyethyl)-4-(trifluoromethyl)-1H-imidazol-2-yl)benzyl)-7,9-dihydro-8H-purin-8-one]: the IC50 lay in the range of 50 to 200 nM.

The compound `CC(C)c1ccccc1-c1ncc2c(n1)n(Cc1ccc(-c3cc(N4CCOCC4)ncn3)cc1)c(=O)n2C` [Compound I-263, 2-(2-isopropylphenyl)-7-methyl-9-(4-(6-morpholinopyrimidin-4-yl)benzyl)-7,9-dihydro-8H-purin-8-one] had an IC50 of 200 to 2000 nM.

The compound `CC(C)c1ccccc1-c1ncc2[nH]c(=O)n(Cc3ccc(-c4nc(C(F)(F)F)cn4C4COC4)cc3)c2n1` [Compound I-192, 2-(2-isopropylphenyl)-9-(4-(1-(oxetan-3-yl)-4-(trifluoromethyl)-1H-imidazol-2-yl)benzyl)-7,9-dihydro-8H-purin-8-one] registered an IC50 of less than 50 nM.

`CC(C)c1ccccc1-c1ncc2[nH]c(=O)n(Cc3ccc(-n4ccc(C5CCNC5)n4)cc3)c2n1` (stereo not shown) [Compound I-222, 2-(2-isopropylphenyl)-9-(4-(3-(pyrrolidin-3-yl)-1H-pyrazol-1-yl)benzyl)-7,9-dihydro-8H-purin-8-one] displayed an IC50 of 200 to 2000 nM.

Consider `CC(C)c1ccccc1-c1ncc2[nH]c(=O)n(Cc3ccc(-n4ccc([C@@H]5CCCNC5)n4)cc3)c2n1` [Compound I-224, (R)-2-(2-isopropylphenyl)-9-(4-(3-(piperidin-3-yl)-1H-pyrazol-1-yl)benzyl)-7,9-dihydro-8H-purin-8-one], for which the IC50 is 50 to 200 nM.

The compound `CC(C)c1ccccc1-c1ncc2[nH]c(=O)n(CC3CCN(S(=O)(=O)C4CC4)CC3)c2n1` [Compound I-461, 9-((1-(cyclopropylsulfonyl)piperidin-4-yl)methyl)-2-(2-isopropylphenyl)-7,9-dihydro-8H-purin-8-one] displayed an IC50 of 50 to 200 nM.

`CO[C@H](C)c1ccccc1-c1ncc2[nH]c(=O)n(Cc3ccc(-c4nc(C(F)(F)F)cn4C)cc3)c2n1` [Compound I-55, (R)-2-(2-(1-methoxyethyl)phenyl)-9-(4-(1-methyl-4-(trifluoromethyl)-1H-imidazol-2-yl)benzyl)-7,9-dihydro-8H-purin-8-one] showed an IC50 of less than 50 nM.

Regarding `CC(C)c1ncccc1-c1ncc2[nH]c(=O)n([C@H](C)c3ccc(-c4nc(C(F)(F)F)cn4C)cc3)c2n1` [Compound I-79, (R)-2-(2-isopropylpyridin-3-yl)-9-(1-(4-(1-methyl-4-(trifluoromethyl)-1H-imidazol-2-yl)phenyl)ethyl)-7,9-dihydro-8H-purin-8-one], the IC50 is less than 50 nM.

In the case of `CC(C)c1ccccc1-c1ncc2c(n1)n(Cc1cccc(OCCCN(C)C)c1)c(=O)n2C` [Compound I-245, 9-(3-(3-(dimethylamino)propoxy)benzyl)-2-(2-isopropylphenyl)-7-methyl-7,9-dihydro-8H-purin-8-one], the IC50 is more than 2000 nM.

With `CC(C)c1ccccc1-c1ncc2[nH]c(=O)n(Cc3ccc(-n4cc(C(C)(C)N)nn4)cc3)c2n1` [Compound I-338, 9-(4-(4-(2-aminopropan-2-yl)-1H-1,2,3-triazol-1-yl)benzyl)-2-(2-isopropylphenyl)-7,9-dihydro-8H-purin-8-one], the IC50 is more than 2000 nM.

Regarding `COC1CCCN(C(=O)c2ccc(Cn3c(=O)[nH]c4cnc(-c5ccccc5C(C)C)nc43)cc2)C1` (stereo not shown) [Compound I-401, 2-(2-isopropylphenyl)-9-(4-(3-methoxypiperidine-1-carbonyl)benzyl)-7,9-dihydro-8H-purin-8-one], the IC50 lay in the range of 50 to 200 nM.

`CNc1ncccc1-c1ncc2[nH]c(=O)n(Cc3ccc(-c4nc(C(F)(F)F)cn4C)cc3)c2n1` [Compound I-311, 9-(4-(1-methyl-4-(trifluoromethyl)-1H-imidazol-2-yl)benzyl)-2-(2-(methylamino)pyridin-3-yl)-7,9-dihydro-8H-purin-8-one]: the IC50 is less than 50 nM.

`CC(C)c1ccccc1-c1ncc2[nH]c(=O)n(Cc3ccc(C(=O)N(C)C(C)C)cc3)c2n1` [Compound I-375, N-isopropyl-4-((2-(2-isopropylphenyl)-8-oxo-7,8-dihydro-9H-purin-9-yl)methyl)-N-methylbenzamide] came in with an IC50 of less than 50 nM.

In the case of `Cc1cc(N2CCC2)nn1-c1ccc(Cn2c(=O)[nH]c3cnc(-c4cccnc4C(C)C)nc32)cc1` [Compound I-68, 9-(4-(3-(azetidin-1-yl)-5-methyl-1H-pyrazol-1-yl)benzyl)-2-(2-isopropylpyridin-3-yl)-7,9-dihydro-8H-purin-8-one], the IC50 lay in the range of 50 to 200 nM.

In turn, `Cc1cn(C)c(-c2ccc(Cn3c(=O)[nH]c4cnc(-c5ccccc5C(C)C)nc43)cn2)n1` [Compound I-203, 9-((6-(1,4-dimethyl-1H-imidazol-2-yl)pyridin-3-yl)methyl)-2-(2-isopropylphenyl)-7,9-dihydro-8H-purin-8-one] registered an IC50 of less than 50 nM.

`COc1cc(C)n(-c2ccc(Cn3c(=O)[nH]c4cnc(-c5cccnc5C(C)C)nc43)cc2)n1` [Compound I-78, 2-(2-isopropylpyridin-3-yl)-9-(4-(3-methoxy-5-methyl-1H-pyrazol-1-yl)benzyl)-7,9-dihydro-8H-purin-8-one]: the IC50 is less than 50 nM.

In the case of `CC(C)c1ccccc1-c1ncc2[nH]c(=O)n(Cc3ccc(C(=O)NCc4nccn4C)cc3)c2n1` [Compound I-360, 4-((2-(2-isopropylphenyl)-8-oxo-7,8-dihydro-9H-purin-9-yl)methyl)-N-((1-methyl-1H-imidazol-2-yl)methyl)benzamide], the IC50 was 200 to 2000 nM.
